Read-outs that look alike come from different tables or passages of the source.
Columns and labels:
11beta-HSD1 = 11beta-HSD1 (Homo sapiens, UniProt P28845); test: biochemical; settings: read-out: IC50 Target 11beta-HSD1
Source text: (§1) Assay protocols for Cdc25A, 11βHSD1, 11βHSD2, and AChE are described in detain in the publication of Koch M A, Wittenberg L O, Basu S, Jeyaraj D A, Gourzoulidou E, Reinecke K, Odermatt A, Waldmann H (Proc. Natl. Acad. Sci. U.S.A. 2004 Nov. 30; 101(48):16721-6) and in Koch M A et al., Proc. Natl. Acad. Sci. U.S.A. 2005 Nov. 29; 102 (48):17272-7.

11beta-HSD2 = molecular target: T1, 11beta-HSD2 (Homo sapiens, UniProt P80365); test: 11beta-HSD2 inhibition; format: biochemical; settings: read-out: IC50 Target 11beta-HSD2
T1 sequence (P80365 1-405): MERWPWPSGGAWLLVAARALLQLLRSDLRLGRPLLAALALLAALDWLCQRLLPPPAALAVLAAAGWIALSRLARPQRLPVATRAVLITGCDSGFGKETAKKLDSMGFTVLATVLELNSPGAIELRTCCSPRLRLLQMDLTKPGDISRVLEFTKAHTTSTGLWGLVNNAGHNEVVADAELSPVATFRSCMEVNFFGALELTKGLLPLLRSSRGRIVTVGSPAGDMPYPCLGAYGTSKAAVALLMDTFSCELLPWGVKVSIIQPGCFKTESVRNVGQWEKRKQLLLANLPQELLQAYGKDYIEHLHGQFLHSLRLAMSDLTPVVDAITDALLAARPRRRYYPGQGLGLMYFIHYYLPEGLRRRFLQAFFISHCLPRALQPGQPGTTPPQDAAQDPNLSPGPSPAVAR
Source text: as §1

AChE = AChE (Homo sapiens, UniProt P22303); test: Acetylcholinesterase inhibition; format: biochemical
Sequence of AChE (P22303 32-614): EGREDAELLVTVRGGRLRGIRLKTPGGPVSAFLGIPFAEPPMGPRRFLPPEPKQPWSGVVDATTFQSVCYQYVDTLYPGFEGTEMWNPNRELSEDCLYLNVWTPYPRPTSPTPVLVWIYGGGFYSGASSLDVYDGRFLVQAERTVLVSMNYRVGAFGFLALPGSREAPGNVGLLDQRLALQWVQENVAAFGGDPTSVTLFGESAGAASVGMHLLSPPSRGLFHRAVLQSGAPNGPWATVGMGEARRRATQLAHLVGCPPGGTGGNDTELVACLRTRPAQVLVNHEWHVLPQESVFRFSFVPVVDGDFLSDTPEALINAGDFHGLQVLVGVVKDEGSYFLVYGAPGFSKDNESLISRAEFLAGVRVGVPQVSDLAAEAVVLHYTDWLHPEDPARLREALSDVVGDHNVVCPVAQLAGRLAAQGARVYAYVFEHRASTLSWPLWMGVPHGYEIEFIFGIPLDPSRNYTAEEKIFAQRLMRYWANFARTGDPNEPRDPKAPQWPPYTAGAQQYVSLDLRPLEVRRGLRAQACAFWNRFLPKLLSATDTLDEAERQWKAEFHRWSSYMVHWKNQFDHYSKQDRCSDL
Source text: as §1

PP1 = PP1 phosphatase inhibition, general phosphatase assay using para-nitrophenylphosphate; format: biochemical; settings: read-out: IC50 Target PP1
Source text: (§2) Assays protocols for the other enzymes mentioned herein (MtPTPA, PP1, VHR, PTP1B) are disclosed in Schweizer R A S, Atanasov, G A, Frey B M, and Odermatt A, Mol. Cell. Endocrinol. 2003, 212, 41-49 and Barratte, B., Meijer L., Galaktionov K. & Beach D, Anticancer Res. 1992, 12, 873-880. For determination of the phosphatase activity, a general phosphatase assay using para-nitrophenylphosphate was applied.

PTP1B = molecular target: T2, PTP1B (Homo sapiens, UniProt P18031); test: PTP1B phosphatase inhibition, general phosphatase assay using para-nitrophenylphosphate; format: biochemical
T2 sequence (P18031 1-435): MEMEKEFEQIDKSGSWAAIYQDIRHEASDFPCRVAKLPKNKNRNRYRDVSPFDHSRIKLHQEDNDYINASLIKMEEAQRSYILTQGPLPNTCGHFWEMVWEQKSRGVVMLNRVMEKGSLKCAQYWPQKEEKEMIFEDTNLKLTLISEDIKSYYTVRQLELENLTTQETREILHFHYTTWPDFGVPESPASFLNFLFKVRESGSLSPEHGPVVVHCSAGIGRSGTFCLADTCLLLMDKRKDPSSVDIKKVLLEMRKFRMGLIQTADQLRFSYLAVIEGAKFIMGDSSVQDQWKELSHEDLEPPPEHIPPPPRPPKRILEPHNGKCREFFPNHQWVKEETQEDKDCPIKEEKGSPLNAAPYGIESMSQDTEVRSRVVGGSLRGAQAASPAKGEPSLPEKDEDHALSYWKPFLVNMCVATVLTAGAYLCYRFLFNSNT
Source text: as §2

Cdc25A = molecular target: T3, Cdc25A (Homo sapiens, UniProt P30304); test: Cdc25A phosphatase inhibition; format: biochemical
T3 sequence (P30304 1-524): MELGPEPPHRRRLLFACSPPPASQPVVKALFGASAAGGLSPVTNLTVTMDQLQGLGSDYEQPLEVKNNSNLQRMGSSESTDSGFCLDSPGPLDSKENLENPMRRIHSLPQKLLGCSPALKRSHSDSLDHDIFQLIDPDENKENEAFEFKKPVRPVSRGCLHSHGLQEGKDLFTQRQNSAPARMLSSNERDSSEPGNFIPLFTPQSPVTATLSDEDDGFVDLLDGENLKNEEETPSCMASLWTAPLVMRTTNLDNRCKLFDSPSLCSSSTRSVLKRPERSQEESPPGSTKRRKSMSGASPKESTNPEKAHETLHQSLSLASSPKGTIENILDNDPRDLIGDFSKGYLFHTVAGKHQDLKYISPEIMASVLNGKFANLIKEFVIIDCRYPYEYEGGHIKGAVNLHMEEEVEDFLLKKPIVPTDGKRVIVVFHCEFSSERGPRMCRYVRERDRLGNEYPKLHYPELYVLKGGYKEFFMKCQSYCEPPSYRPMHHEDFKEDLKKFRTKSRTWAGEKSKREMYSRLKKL
Source text: as §1

VHR = VHR (Homo sapiens, UniProt P51452); test: VHR phosphatase inhibition, general phosphatase assay using para-nitrophenylphosphate; format: biochemical; settings: read-out: IC50 Target VHR
Sequence of VHR (P51452 whole entry, species assumed): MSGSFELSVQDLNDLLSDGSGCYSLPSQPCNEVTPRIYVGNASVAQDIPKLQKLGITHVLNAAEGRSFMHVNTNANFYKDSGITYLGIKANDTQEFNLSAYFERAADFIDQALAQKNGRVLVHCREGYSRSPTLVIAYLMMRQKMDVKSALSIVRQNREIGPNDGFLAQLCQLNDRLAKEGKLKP
Source text: as §2

MPTPA = MPTPA (Mycobacterium tuberculosis, UniProt P9WIA1); test: MtPTPA phosphatase inhibition, general phosphatase assay using para-nitrophenylphosphate; format: biochemical
Sequence of MPTPA (P9WIA1 whole entry): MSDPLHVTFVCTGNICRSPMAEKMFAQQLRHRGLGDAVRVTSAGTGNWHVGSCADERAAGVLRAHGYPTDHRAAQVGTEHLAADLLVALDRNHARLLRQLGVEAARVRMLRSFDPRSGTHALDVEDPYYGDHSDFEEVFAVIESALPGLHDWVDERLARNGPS
Source text: as §2

Sequence of 11beta-HSD1 (P28845 whole entry): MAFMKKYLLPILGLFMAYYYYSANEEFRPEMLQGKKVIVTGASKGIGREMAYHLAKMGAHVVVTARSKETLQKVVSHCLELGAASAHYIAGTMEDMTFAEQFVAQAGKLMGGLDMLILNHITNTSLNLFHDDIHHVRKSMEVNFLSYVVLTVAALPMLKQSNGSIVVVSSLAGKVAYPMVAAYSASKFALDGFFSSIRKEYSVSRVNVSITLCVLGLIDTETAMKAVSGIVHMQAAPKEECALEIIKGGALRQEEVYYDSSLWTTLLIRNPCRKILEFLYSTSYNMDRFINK

Row | SMILES | IC50 (11beta-HSD1) | IC50 (11beta-HSD2) | IC50 (PP1) | IC50 (PTP1B; read-out: IC50 Target PTP1B) | IC50 (Cdc25A; read-out: IC50 Target Cdc25A) | IC50 (VHR) | further results
1 | O=C1C(=Cc2ccco2)CCC2CC=CCC12 (stereo not shown) [Compound 403, 2-Furan-2-ylmethylene-3,4,4a,5,8,8a-hexahydro-2H-naphthalen-1-one] | < 10 µM | < 10 µM | – | – | – | – | –
2 | CC1=C2CC(c3ccccc3)CC(O)C2CCC1=O (stereo not shown) [Compound 167, 5-Hydroxy-1-methyl-7-phenyl-4,4a,5,6,7,8,-hexahydro-3H-naphthalen-2-one] | – | – | – | – | – | – | IC50 (AChE; read-out: IC50 Target AChE): < 10 µM
3 | CC1=C2CCC[C@H](O)[C@@]2(C)C/C(=C\c2ccc(C#C[Si](C)(C)C)cc2)C1=O [Compound 53, (3E,4aS,5S)-3-{4-[2-(Trimethylsilyl)ethinyl]benzyliden}-4,4a,5,6,7,8-hexahydro-5-hydroxy-1,4a-dimethylnaphthalen-2(3H)-on] | – | – | 10 to 50 µM | – | – | – | IC50 (PTP1B): 10 to 50 µM; IC50 (Cdc25A): 10 to 50 µM
4 | CC1=C2CCC[C@H](O)[C@@]2(C)C/C(=C\c2cc(Cl)cs2)C1=O [Compound 12, (3E,4aS,5S)-3-[(4-Chlorthiophen-2-yl)methylen]-4,4a,5,6,7,8-hexahydro-5-hydroxy-1,4a-dimethylnaphthalen-2(3H)-one] | < 10 µM | – | 10 to 50 µM | 10 to 50 µM | – | – | –
5 | CCc1cc(OC)ccc1/C=C1\C[C@@]2(C)C(=C(C)C1=O)CCC[C@@H]2O [Compound 15, (3E,4aS,5S)-3-(2-Ethyl-4-methoxybenzyliden)-4,4a,5,6,7,8-hexahydro-5-hydroxy-1,4a-dimethylnaphthalen-2(3H)-one] | < 10 µM | 10 to 50 µM | – | – | – | – | –
6 | CC(=O)Oc1ccc(/C=C2\C[C@@]3(C)C(=C(C)C2=O)CCC[C@@H]3O)cc1 [Compound 31, 4-{(1E)-[(4S,4aS)-1,2,3,4,4a,5-Hexahydro-4-hydroxy-4a,8-dimethyl-7-oxonaphthalen-6(7H)-yliden]methyl}phenylacetat] | < 10 µM | 10 to 50 µM | – | 10 to 50 µM | – | – | IC50 (AChE; read-out: IC50 Target AChE): < 10 µM
7 | CC1=C2CCC[C@H](O)[C@@]2(C)C/C(=C\c2cc3ccccc3o2)C1=O [Compound 4, (3E,4aS,5S)-3-[(Benzofuran-2-yl)methylen]-4,4a,5,6,7,8-hexahydro-5-hydroxy-1,4a-dimethyl-naphthalen-2(3H)-one] | < 10 µM | – | 10 to 50 µM | 10 to 50 µM | 10 to 50 µM | – | –
8 | CC1=C2CC/C(=C\c3ccco3)C(=O)[C@@]2(C)CCC1O (stereo partly drawn) [Compound 25, (2E,8aS)-2-[(Furan-2-yl)methylen]-3,4,6,7,8,8a-hexahydro-6-hydroxy-5,8a-dimethylnaphthalen-1(2H)-one] | – | – | 10 to 50 µM | – | – | 10 to 50 µM | IC50 (MPTPA; read-out: IC50 Target MPTPA): 10 to 50 µM
9 | CCC/C=C1\C[C@@]2(C)C(=C(C)C1=O)CCC[C@@H]2O [Compound 32, (3E,4aS,5S)-3-Butyliden-4,4a,5,6,7,8-hexahydro-5-hydroxy-1,4a-dimethylnaphthalen-2(3H)-one] | < 10 µM | < 10 µM | 10 to 50 µM | 10 to 50 µM | 10 to 50 µM | < 10 µM | IC50 (MPTPA): < 10 µM; IC50 (AChE): < 10 µM
10 | CC(=O)Oc1cccc(/C=C2\C[C@@]3(C)C(=C(C)C2=O)CCC[C@@H]3O)c1 [Compound 26, 3-{(1E)-[(4S,4aS)-1,2,3,4,4a,5-Hexahydro-4-hydroxy-4a,8-dimethyl-7-oxonaphthalen-6(7H)-yliden]methyl}phenylacetat] | < 10 µM | – | 10 to 50 µM | 10 to 50 µM | – | 10 to 50 µM | –
11 | CC1=C2CCCC(O)C2(C)CC(=Cc2ccc(C#CCCCC#N)cc2)C1=O [Compound 47, 6-{4-{(1E)-[(43,4aS)-1,2,3,4,4a,5-Hexahydro-4-hydroxy-4a,8-dimethyl-7-oxonaphthalen-6(7H)-yliden]-methyl}phenyl}hex-5-in-nitril] | – | – | < 10 µM | 10 to 50 µM | 10 to 50 µM | 10 to 50 µM | –
12 | C/C=C/C=C1\C[C@@]2(C)C(=C(C)C1=O)CCC[C@@H]2O [Compound 29, (3E,4aS,5S)-3-[(E)-But-2-enyliden]-4,4a,5,6,7,8-hexahydro-5-hydroxy-1,4a-dimethylnaphthalen-2(3H)-one] | < 10 µM | < 10 µM | – | < 10 µM | 10 to 50 µM | – | IC50 (AChE): < 10 µM

— patent US20090062401A1, “DECALINE-DERIVED COMPOUNDS AS […] ACTIVE AGENTS” (UNIVERSITAT DORTMUND, priority 2004, published 2009)
